# From patent publication US4234691A (Yamasa Shoyu Kabushiki Kaisha, priority 1978, dated 1980)
# T1: L-lysine α-oxidase (Trichoderma viride, UniProt A0A0G4DCU0)
# T1 construct: mature processed form
# T1 sequence (A0A0G4DCU0 77-617): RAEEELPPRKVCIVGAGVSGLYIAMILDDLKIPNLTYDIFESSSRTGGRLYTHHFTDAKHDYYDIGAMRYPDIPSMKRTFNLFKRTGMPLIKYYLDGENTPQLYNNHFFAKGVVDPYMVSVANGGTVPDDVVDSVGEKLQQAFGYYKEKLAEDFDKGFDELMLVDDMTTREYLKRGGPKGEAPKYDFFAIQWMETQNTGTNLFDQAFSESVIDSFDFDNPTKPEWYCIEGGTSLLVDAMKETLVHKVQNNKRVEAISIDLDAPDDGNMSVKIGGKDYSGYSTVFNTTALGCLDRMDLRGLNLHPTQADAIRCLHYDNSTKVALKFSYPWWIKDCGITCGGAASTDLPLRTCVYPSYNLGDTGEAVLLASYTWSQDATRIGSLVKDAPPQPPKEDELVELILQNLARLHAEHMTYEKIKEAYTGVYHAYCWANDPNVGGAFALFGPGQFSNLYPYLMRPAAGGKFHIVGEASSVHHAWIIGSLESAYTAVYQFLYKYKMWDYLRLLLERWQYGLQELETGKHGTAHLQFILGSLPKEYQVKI
# B1: L-lysine α-oxidase (Trichoderma viride) (protein)
# chain: T1 sequence (A0A0G4DCU0 77-617)
# notes: mature processed form
# Substrate: NCCC[C@H](N)C(=O)O
# Assay: purified protein, by the assay type
# Conditions: other: purified enzyme of Example 1
row,Molecule,Km [µM]
1,B1,440

# Biological target: T1, L-lysine α-oxidase
# Assay: Substrate specificity, relative enzyme activity by oxygen-electrode method
# Type: biochemical
# Conditions: purified enzyme
# Experimental: A variety of substrates listed in the following table were subjected to the action of the purified enzyme of the present invention, and the relative enzyme activities thereof were determined according to the oxygen-electrode method.
# The activity of the present enzyme was measured in accordance with Soda's method (Analytical Biochemistry Vol. 25, p. 228, 1968) in the following manner. A reaction mixture consisting of 0.7 ml of 0.1 M potassium phosphate buffer (pH 8.0), 0.1 ml of catalase (750 U/ml), 0.1 ml of 0.1 M L-lysine solution and 0.1 ml of the present enzyme solution was incubated at 37° C. for 20 minutes with gentle shaking. After the incubation the reaction was terminated by the addition of 0.1 ml of 25% trichloroacetic acid. To the resulting reaction mixture were added 1.9 ml of 1 M acetate buffer (pH 5.0) and 0.8 ml of 0.1% 3-methyl-2-benzothiazolone hydrazone hydrochloride solution. The mixture was further incubated at 30° C. for 30 minutes and then allowed to cool to room temperature, after which measurement of optical density at 318 nm was carried out. The formed α-keto-ε -aminocaproic acid thus formed was determined from the resulting calibration curve. One unit of the enzyme was defined as the quantity of the enzyme catalyzing the formation of 1 μmol of α-keto-ε-aminocaproic acid at 37° C. per minute. The relative activity of the enzyme was also assayed by manometric and polarographic determination of the oxygen consumption.
row,Molecule,Activity of the enzyme to the amino acid (in words)
1,N[C@@H](Cc1ccccc1)C(=O)O [L-Phenylalanine],some activities
2,N[C@@H](Cc1c[nH]cn1)C(=O)O [L-Histidine],some activities
3,N=C(N)NCCC[C@H](N)C(=O)O [L-Arginine],some activities
4,NCCC[C@H](N)C(=O)O [L-Ornithine],some activities

# Same assay, conditions: substrate 10 mM, purified enzyme, L-Lysine = 100
row,Molecule,Relative activity (%)
1,CC(C)[C@H](N)C(=O)O [L-Valine],< 0.5
2,N[C@@H](Cc1ccccc1)C(=O)O [L-Phenylalanine],8.3
3,N[C@@H](Cc1c[nH]cn1)C(=O)O [L-Histidine],3.8
4,CC[C@H](C)[C@H](N)C(=O)O [L-Isoleucine],< 0.5
5,"NCCCCCC(N)C(=O)O (racemic) [D,L-Homolysine]",31.1
6,CCOC(=O)[C@@H](N)CCCCN [L-Lysine ethyl ester],83.3
7,NCCCCCN [Cadaverine],< 0.5
8,NCCSC[C@H](N)C(=O)O [S-(β-Aminoethyl)-L-cysteine],9.8
9,NC(=O)CC[C@H](N)C(=O)O [L-Glutamine],< 0.5
10,N[C@@H](CSCCc1ccncc1)C(=O)O [S-(β-4-Pyridylethyl)-L-cysteine],2.7
11,N[C@@H](CS)C(=O)O [L-Cysteine],< 0.5
12,NCCCC[C@@H](N)C(=O)O [D-Lysine],< 0.5
13,N[C@@H](CCC(=O)O)C(=O)O [L-Glutamic acid],< 0.5
14,O=C(O)[C@@H]1C[C@@H](O)CN1 [L-Hydroxyproline],< 0.5
15,N=C(N)NCCC[C@H](N)C(=O)O [L-Arginine],6.1
16,CC(C)C[C@H](N)C(=O)O [L-Leucine],< 0.5
17,NCCCC[C@H](N)C(=O)NO [L-Lysine hydroxamate],62.1
18,NCCCC[C@H](N)C(=O)O [L-Lysine],100.0
19,"NCC(N)C(=O)O (stereo not drawn) [α,β-Diaminopropionic acid]",< 0.5

row,Molecule,Relative activity (%)
1,C[C@H](N)C(=O)O [L-Alanine],< 0.5
2,NCCC[C@H](N)C(=O)O [L-Ornithine],18.2
3,NCCCCN [Putrescine],< 0.5
4,C[C@@H](O)[C@H](N)C(=O)O [L-Threonine],< 0.5
5,NCC(=O)O [L-Glycine],< 0.5
6,CC(=O)NCCCC[C@H](N)C(=O)O [ε-N-Acetyl-L-lysine],< 0.5
7,CC(N)CSC[C@H](N)C(=O)O (stereo partly drawn) [S-(β-Aminopropyl-L-cysteine],34.8
8,NC(=O)NCCCC[C@H](N)C(=O)O [Homocitrulline],< 0.5
9,NCC(O)CC[C@H](N)C(=O)O (some centres unmarked) [δ-Hydroxy-lysine],37.1
10,N[C@@H](CC(=O)O)C(=O)O [L-Aspartic acid],< 0.5
11,NC(=O)C[C@H](N)C(=O)O [L-Asparagine],< 0.5
12,"NCCC(N)C(=O)O (centres unmarked) [2,4-Diaminobutyric acid]",< 0.5
13,NC(=O)NCCC[C@H](N)C(=O)O [L-Citrulline],< 0.5
14,NCCCCC(=O)O [δ-Aminovareric acid],< 0.5
15,N[C@@H](Cc1c[nH]c2ccccc12)C(=O)O [L-Tryptophan],< 0.5
16,O=C(O)[C@@H]1CCCN1 [L-Proline],< 0.5
17,N[C@@H](CO)C(=O)O [L-Serine],< 0.5
18,CSCC[C@H](N)C(=O)O [L-Methionine],< 0.5
19,NCCCCCC(=O)O [ε-Aminocaproic acid],< 0.5

# Biological target: T1, L-lysine α-oxidase
# Assay: Enzyme activity in the presence of metallic ions and additives (inhibition, activation, stabilization)
# Type: biochemical
# Conditions: not given
# Experimental: The enzyme activity was measured in the presence of various metallic ions and various additives. The activator has not been found. The enzyme was stabilized by sodium chloride, potassium chloride, phosphates and the like.
Molecule,Stabilization of the enzyme (in words),Relative activity (%) in presence of inhibitors [%]
phosphates,stabilized,–
[Cl-].[Na+] [sodium chloride],stabilized,–
[Cl-].[K+] [potassium chloride],stabilized,–
N[C@@H](CCC(=O)N[C@@H](CS)C(=O)NCC(=O)O)C(=O)O [Glutathione],–,103.5
"O=C(O)CN(CCN(CC(=O)O)CC(=O)O)CC(=O)O [EDTA, Ethylenediaminetetraacetic acid]",–,93.8

# Same assay, conditions: enzyme activity measured in presence of the additive
row,Molecule,Effect on enzyme activity (in words)
1,[Cl][Hg][Cl] [Mercuric chloride],inhibited
2,[Cu+2] [Cu],inhibited
3,"O=C(O)c1cc[c]([Hg][Cl])cc1 [PCMB, para-Chloromercuribenzoic acid]",inhibited

# Same assay, conditions: inhibitor concentration not given
row,Molecule,Relative activity (%) in presence of inhibitors [%]
1,N[C@@H](CS)C(=O)O [Cysteine],100.3
2,[Cl][Hg][Cl] [Mercuric chloride],19.2
3,CCN1C(=O)C=CC1=O [N-Ethylmaleimide],108.7
4,O=S(=O)(O)c1cc(O)c(O)c(S(=O)(=O)O)c1 [Tiron],96.5
5,"O=C(O)c1cc[c]([Hg][Cl])cc1 [PCMB, para-Chloromercuribenzoic acid]",42.9

# Same assay, conditions: metallic ions 1mM
row,Molecule,Relative activity (%) in presence of metallic ions [%]
1,[Zn+2] [Zn],92.7
2,[Li+] [Li],98.4
3,[Cu+2] [Cu],78.5
4,[Ca+2] [Ca],102.5
5,[K+] [K],100.0
6,[Co+2] [Co],91.6
7,[Mg+2] [Mg],99.6
8,[Ba+2] [Ba],100.0
9,[Mn+2] [Mn],97.1

# Test system: L5178 Y mouse leukemic cells
# Assay: not given
# Conditions: L5178Y cells, 10^5 cells/ml, 37° C., 48 hours
# Experimental: In this experiment, the antitumor activity in vitro was determined by measuring the proliferation-inhibition activity against the cultured L5178 Y mouse leukemic cells. More specifically, 0.1 ml of the sample diluted with a phosphate-buffered saline (PBS) was added to 0.9 ml of the cultured L5178Y cell suspension (10^5 cells/ml) with the logarithmic growth phase. The mixture was incubated, at 37° C. for 48 hours in a carbon dioxide incubator, and then the number of the cells was measured by means of a microcell counter.
row,Molecule,Concentration giving complete inhibition of proliferation [mU/ml]
1,L-lysine α-oxidase,3.3

# Substrate: NCCCC[C@H](N)C(=O)O
# Assay: Km values of the enzyme for amino acids
# Type: biochemical, Trichoderma viride
# Conditions: other: purified enzyme of Example 1
row,Molecule,Km [µM]
1,B1,40

# Substrate: N[C@@H](Cc1ccccc1)C(=O)O
# Assay: Km values of the enzyme for amino acids
# Type: biochemical, Trichoderma viride
# Conditions: other: purified enzyme of Example 1
row,Molecule,Km [µM]
1,B1,14000
